Data published in US20160046618A1, “Cyclopropyl Fused Thiazin-2-Amine Compounds as Beta-Secretase Inhibitors and Methods of Use” (AMGEN INC., priority 2014, published 2016).

Key:
[1] = test system: Aβ40 in conditioned medium of cells stably expressing Amyloid Precursor Protein (APP); assay: In vitro BACE-1 cell-based assay (Aβ40 sandwich ELISA); conditions: read-out: IC50 IP (μM) BACE1 cell
How it was run: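 APP-stable cells, pre-cultured 24 h at 37° C in DMEM/10% FBS, were treated 24 h with compound in a 10-point series starting at 100 μM or 10 μM (0.1% DMSO final). Secreted Aβ40 in conditioned medium was measured by pAb40/biotin-6E10 sandwich ELISA with Europium time-resolved fluorescence; IC50 from percent inhibition versus concentration.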

human recombinant BACE2 = human recombinant BACE2 (Homo sapiens (Human), UniProt Q9Y5Z0); assay: In vitro enzymatic BACE2 FRET assay; format: biochemical; conditions: read-out: IC50 IP (μM) BACE2 enzyme
How it was run: (§1)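 Ni-NTA-purified recombinant enzyme incubated 1 h with 50 nM FRET peptide substrate (fluorophore and quencher flanking the BACE cleavage site). Reaction stopped with Tris buffer raising pH to neutrality; cleavage-released fluorescence read at ex 488/em 590 nm.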

Recombinant Cat D = Recombinant Cat D (Homo sapiens (Human), UniProt P07339); assay: In vitro enzymatic Cathepsin D (Cat D) FRET assay; format: biochemical; conditions: read-out: IC50 IP (μM) CatD
How it was run: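 Human Cat D expressed in CHO cells was incubated for one hour in 0.05 M citrate pH 3.5, 5 mM CHAPS, 10% DMSO final, with 20 nM quenched FRET peptide substrate. Reactions were stopped with Tris buffer raising pH to neutrality. Cleavage was read as fluorescence at excitation 500 nm, emission 580 nm.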

human recombinant BACE1 = human recombinant BACE1 (Homo sapiens (Human), UniProt P56817); assay: In vitro enzymatic BACE1 FRET assay; format: biochemical; conditions: read-out: IC50 IP (μM) BACE1 enzyme
How it was run: as §1

Recombinant Cat D, sequence (P07339 65-412): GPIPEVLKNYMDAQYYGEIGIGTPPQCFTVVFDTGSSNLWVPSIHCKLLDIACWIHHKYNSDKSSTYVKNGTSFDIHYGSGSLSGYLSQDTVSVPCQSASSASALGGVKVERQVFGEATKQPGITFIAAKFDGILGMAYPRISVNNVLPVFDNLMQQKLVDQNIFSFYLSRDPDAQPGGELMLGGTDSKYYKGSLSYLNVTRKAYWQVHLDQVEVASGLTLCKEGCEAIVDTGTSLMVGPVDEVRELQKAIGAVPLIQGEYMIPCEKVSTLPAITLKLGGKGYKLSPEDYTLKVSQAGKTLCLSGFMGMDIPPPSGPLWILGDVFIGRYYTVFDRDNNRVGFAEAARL
human recombinant BACE1, sequence (P56817 46-501): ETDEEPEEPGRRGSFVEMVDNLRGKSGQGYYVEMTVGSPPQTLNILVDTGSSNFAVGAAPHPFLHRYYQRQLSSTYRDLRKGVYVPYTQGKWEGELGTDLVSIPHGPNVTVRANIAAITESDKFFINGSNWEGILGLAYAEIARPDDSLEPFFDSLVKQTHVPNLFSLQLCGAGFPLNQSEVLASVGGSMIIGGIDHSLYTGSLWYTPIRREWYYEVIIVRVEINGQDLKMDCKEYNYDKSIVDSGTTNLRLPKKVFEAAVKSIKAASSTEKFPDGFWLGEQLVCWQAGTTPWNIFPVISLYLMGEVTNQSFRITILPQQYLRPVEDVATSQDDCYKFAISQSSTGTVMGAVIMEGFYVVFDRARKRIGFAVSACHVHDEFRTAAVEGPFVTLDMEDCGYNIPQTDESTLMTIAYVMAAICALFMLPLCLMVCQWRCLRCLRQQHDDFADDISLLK
human recombinant BACE2, sequence (Q9Y5Z0 63-518): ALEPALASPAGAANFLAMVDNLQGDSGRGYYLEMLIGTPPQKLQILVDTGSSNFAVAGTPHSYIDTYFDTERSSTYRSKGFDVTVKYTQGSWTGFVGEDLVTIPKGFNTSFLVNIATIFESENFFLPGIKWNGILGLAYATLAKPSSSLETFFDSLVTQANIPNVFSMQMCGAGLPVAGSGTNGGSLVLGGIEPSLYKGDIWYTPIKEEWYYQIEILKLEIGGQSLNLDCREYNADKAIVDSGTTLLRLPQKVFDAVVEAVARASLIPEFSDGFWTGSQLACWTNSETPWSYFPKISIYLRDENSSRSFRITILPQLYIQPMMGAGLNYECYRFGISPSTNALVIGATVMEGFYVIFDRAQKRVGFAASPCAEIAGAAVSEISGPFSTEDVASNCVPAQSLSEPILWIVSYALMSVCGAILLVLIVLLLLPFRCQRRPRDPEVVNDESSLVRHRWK

## COC[C@]12C[C@H]1[C@@](C)(c1cc(NC(=O)c3cnc(OCC4CCC4)cn3)cc(F)c1F)N=C(N)S2 [Example 1020, N-(3-((1S,5S,6S)-3-amino-1-(methoxymethyl)-5-methyl-2-thia-4-azabicyclo[4.1.0]hept-3-en-5-yl)-4,5-difluorophenyl)-5-(cyclobutylmethoxy)pyrazine-2-carboxamide]
[1]
  IC50: 0.0248 µM
Human recombinant BACE2
  IC50: 0.0998 µM
Recombinant Cat D
  IC50: 783 µM
Human recombinant BACE1
  IC50: 0.00118 µM

## COC[C@]12C[C@H]1[C@@](C)(c1cc(NC(=O)c3cnc(OCC4COC4)cn3)cc(F)c1F)N=C(N)S2 [Example 1022, N-(3-((1S,5S,6S)-3-amino-1-(methoxymethyl)-5-methyl-2-thia-4-azabicyclo[4.1.0]hept-3-en-5-yl)-4,5-difluorophenyl)-5-(3-oxetanylmethoxy)-2-pyrazinecarboxamide]
[1]
  IC50: 0.0331 µM
Human recombinant BACE2
  IC50: 0.579 µM
Recombinant Cat D
  IC50: > 400 µM
Human recombinant BACE1
  IC50: 0.00572 µM

## COC[C@]12C[C@H]1[C@@](C)(c1cc(NC(=O)c3cnc(OCC(C)OC)cn3)cc(F)c1F)N=C(N)S2 (stereo partly drawn) [Example 1023, N-(3-((1S,5S,6S)-3-amino-1-(methoxymethyl)-5-methyl-2-thia-4-azabicyclo[4.1.0]hept-3-en-5-yl)-4,5-difluorophenyl)-5-(2-methoxypropoxy)pyrazine-2-carboxamide]
[1]
  IC50: 0.0135 µM
Human recombinant BACE2
  IC50: 0.204 µM
Recombinant Cat D
  IC50: 1360 µM
Human recombinant BACE1
  IC50: 0.00319 µM

## COC[C@H](C)Oc1cnc(C(=O)Nc2cc(F)c(F)c([C@@]3(C)N=C(N)S[C@@]4(COC)C[C@H]43)c2)cn1 [Example 1024, N-(3-((1S,5S,6S)-3-amino-1-(methoxymethyl)-5-methyl-2-thia-4-azabicyclo[4.1.0]hept-3-en-5-yl)-4,5-difluorophenyl)-5-((1S)-2-methoxy-1-methylethoxy)-2-pyrazinecarboxamide]
[1]
  IC50: 0.0222 µM
Human recombinant BACE2
  IC50: 0.313 µM
Recombinant Cat D
  IC50: 884 µM
Human recombinant BACE1
  IC50: 0.00214 µM

## COC[C@]12C[C@H]1[C@@](C)(c1cc(NC(=O)c3cnc(OCC(F)F)cn3)cc(F)c1F)N=C(N)S2 [Example 1025, N-(3-((1S,5S,6S)-3-amino-1-(methoxymethyl)-5-methyl-2-thia-4-azabicyclo[4.1.0]hept-3-en-5-yl)-4,5-difluorophenyl)-5-(2,2-difluoroethoxy)-2-pyrazinecarboxamide]
[1]
  IC50: 0.0142 µM
Human recombinant BACE2
  IC50: 0.13 µM
Recombinant Cat D
  IC50: 1700 µM
Human recombinant BACE1
  IC50: 0.00169 µM

## COC[C@]12C[C@H]1[C@@](C)(c1cc(NC(=O)c3cnc(OCC4CC(F)(F)C4)cn3)cc(F)c1F)N=C(N)S2 [Example 1026, N-(3-((1S,5S,6S)-3-amino-1-(methoxymethyl)-5-methyl-2-thia-4-azabicyclo[4.1.0]hept-3-en-5-yl)-4,5-difluorophenyl)-5-((3,3-difluorocyclobutyl)methoxy)-2-pyrazinecarboxamide]
[1]
  IC50: 0.0936 µM
Human recombinant BACE2
  IC50: 0.115 µM
Recombinant Cat D
  IC50: 475 µM
Human recombinant BACE1
  IC50: 0.00496 µM

## COC[C@]12C[C@H]1[C@@](C)(c1cc(NC(=O)c3c[nH]c(=O)cn3)cc(F)c1F)N=C(N)S2 [Example 1027, N-(3-((1S,5S,6S)-3-amino-1-(methoxymethyl)-5-methyl-2-thia-4-azabicyclo[4.1.0]hept-3-en-5-yl)-4,5-difluorophenyl)-5-oxo-4,5-dihydro-2-pyrazinecarboxamide]
[1]
  IC50: 0.136 µM
Human recombinant BACE2
  IC50: 0.0565 µM
Recombinant Cat D
  IC50: 981 µM
Human recombinant BACE1
  IC50: 0.0196 µM

## COC[C@]12C[C@H]1[C@@](C)(c1cc(NC(=O)c3cnc(OCC(C)C)cn3)cc(F)c1F)N=C(N)S2 [Example 1028, N-(3-((1S,5S,6S)-3-amino-1-(methoxymethyl)-5-methyl-2-thia-4-azabicyclo[4.1.0]hept-3-en-5-yl)-4,5-difluorophenyl)-5-(2-methylpropoxy)-2-pyrazinecarboxamide]
[1]
  IC50: 0.0293 µM
Human recombinant BACE2
  IC50: 0.226 µM
Recombinant Cat D
  IC50: 135 µM
Human recombinant BACE1
  IC50: 0.00195 µM
